According to patent US11179410B2, “Pharmaceutical composition for improving, preventing or treating muscle related disease comprising ginsenoside Rh2” (KOREA ADVANCED INSTITUTE OF SCIENCE AND TECHNOLOGY, priority 2018, dated 2021):

Key:
Assay type in all cases: cell-based, mouse
pSmad2/Smad2 = assay: Western blotting of pSmad2 in MSTN-induced atrophic myotube cells
Procedure: (§1) MSTN is known to induce atrophy by increasing UPP-mediated protein degradation through activation of the ActRIIB-Smad2 signaling pathway. Phosphorylated Smad2 (pSmad2) activates this UPP-mediated proteolytic signaling. Activated UPP is involved in the degradation of MyoD and is regulated by the E3 ligase, MAFbx. To investigate the mechanism of Rh2 in this signal transduction, changes of the amount of Rh2-induced phosphorylation of Smad2 and the amount of MAFbx and MyoD expression were determined. For this purpose, myotube cells were treated with 0.4 μg/ml MSTN alone, or with combination of 0.4 μg/ml MSTN and 1 μg/ml or 10 μg/ml Rh2. Western blotting was performed using pSmad2 antibody, MAFbx antibody, and MyoD antibody respectively.
(§2) The bands of Western blot and the relative fold change values of pSmad2/Smad2, MAFbx/GAPDH and MyoD/GAPDH in each treatment conditions were shown in FIG. 4.

MAFbx = assay: Western blotting of MAFbx in MSTN-induced atrophic myotube cells
Procedure: as §1, §2

[1] = system: MSTN-induced atrophic myotube cells (C2C12); assay: Myotube width in MSTN-induced atrophic myotubes treated with Rh2
Procedure: C2C12 myotube cells were fixed with 4% (w/v) paraformaldehyde (Biosesang) for 15 minutes and then treated with 0.2% (v/v) Triton X-100, and blocked with 5% (w/v) BSA for 6 h. The cells were then stained with Myosin Heavy Chain (MHC) antibody (Santa Cruz, sc-20641, 1: 1000) for 12 h at 4° C. and then incubated with Alexa Fluor 488 conjugated secondary antibody at room temperature for 4 h. Images were acquired via HCS equipment (Molecular Devices) and quantified using ImageJ software. The width of myotube cells was quantified by measuring a total of more than 100 myotube cell widths in randomly selected five regions. The width per myotube was determined as the average of three independent measurements.
To investigate the effect of Rh2 on MSTN-induced atrophy, myotubes were treated with 0.4 ug/ml MSTN alone for 24 hours or treated with combination of 0.4 ug/ml MSTN and 1 ug/ml or 10 ug/ml Rh2 (Sigma, 73658) for 24 hours. In order to measure the change of the myotube width, the myotube cells were stained with MHC antibody as in the above Experimental Example 1, and cell images were obtained using HCS, and the width of myotube was quantified using ImageJ.

MyoD = assay: Western blotting of MyoD in MSTN-induced atrophic myotube cells
Procedure: as §1, §2

C2C12 myotube cells = assay: Induction of muscular atrophy cell model: myotube width after MSTN treatment; conditions: 24 hours, C2C12 myotubes
Procedure: The model of muscular atrophy was constructed by differentiating mouse myoblast cell lines (C2C12 ATCC CRL-1772) into myotube cells followed by treating with MSTN.
Specifically, the cell lines were cultured in DMEM (Gibco) supplemented with 10% (v/v) Fetal Bovine Serum (FBS), 100 U/ml penicillin and 100 U/ml streptomycin (Sigma) at 37° C. in 5% CO2. For differentiating the cell lines into myotube cells, the cells were grown to 80-90% confluence and then cultured in DMEM supplemented with 2% (v/v) horse serum (Horse Serum, HS, Gibco). To verify the differentiation into myotube cells, the merge of multiple myoblasts to one long myotube cells were observed by the microscopic images.
In order to induce an atrophy model, differentiated myotube cells were cultured in serum-free DMEM medium for 3 hours, and then MSTN was treated with 0.4 μg/ml, […], 0.8 μg/ml and 1.2 μg respectively for 24 hours. […]
C2C12 myotube cells were fixed with 4% (w/v) paraformaldehyde (Biosesang) for 15 minutes and then treated with 0.2% (v/v) Triton X-100, and blocked with 5% (w/v) BSA for 6 h. […] Images were acquired via HCS equipment (Molecular Devices) and quantified using ImageJ software. The width of myotube cells was quantified by measuring a total of more than 100 myotube cell widths in randomly selected five regions. The width per myotube was determined as the average of three independent measurements.

Compound	amount of pSmad2 (pSmad2/Smad2) relative to normal conditions (pSmad2/Smad2; 0.4 μg/ml MSTN + 10 ug/ml Rh2)	amount of MAFbx (MAFbx/GAPDH) relative to normal conditions (MAFbx; 0.4 μg/ml MSTN + 10 ug/ml Rh2)	width of myotube as % of that of normal cells ([1]; 0.4 ug/ml MSTN + 1 ug/ml Rh2, 24 hours)	width of myotube as % of that of normal cells ([1]; 0.4 ug/ml MSTN + 10 ug/ml Rh2, 24 hours)	amount of MyoD (MyoD/GAPDH) relative to normal conditions (MyoD; 0.4 μg/ml MSTN + 10 ug/ml Rh2)	amount of pSmad2 (pSmad2/Smad2), increase compared with normal condition (pSmad2/Smad2; 0.4 μg/ml MSTN alone)	amount of MAFbx (MAFbx/GAPDH), increase compared with normal condition (MAFbx; 0.4 μg/ml MSTN alone)	decrease of width of myotube compared to the normal (C2C12 myotube cells; 0.4 ug/ml MSTN, control width = 1.0)	decrease of width of myotube compared to the normal (C2C12 myotube cells; as the concentration of MSTN increased (up to 1.2 μg))	reduction of width of myotube compared to normal cells ([1]; 0.4 ug/ml MSTN alone, 24 hours)	amount of MyoD (MyoD/GAPDH), % of the normal condition (MyoD; 0.4 μg/ml MSTN alone)
CC(C)=CCC[C@](C)(O)[C@H]1CC[C@]2(C)[C@@H]1[C@H](O)C[C@@H]1[C@@]3(C)CC[C@H](O[C@@H]4O[C@H](CO)[C@@H](O)[C@H](O)[C@H]4O)C(C)(C)[C@@H]3CC[C@]12C [Rh2, ginsenoside Rh2]	kept at the same level as normal conditions	kept at the same level as normal conditions	about 70%	above 100%	kept at the same level as normal conditions						
Myostatin [MSTN]						about 50%	about 50%	about 45%	about 60%	about 50%	about 30%
